Laboratory results as given in publication PMC9127750, “Structure-based design of CDC42 effector interaction inhibitors for the treatment of cancer” (Cell reports, 2022).
“And” between values parts separate entries of the source, which are not always exact repeats. Equal values may be shown once.

Tested on: WM3248 melanoma cells, 486 antibodies
Experiment: Reverse phase protein arrays (RPPA)
Assay type: cell-based, Human
Excerpt: Pellets were snap frozen in liquid nitrogen and shipped to MD Anderson Cancer Center core RPPA facility for RPPA analysis (Table S5). Three biological replicates for each sample were generated.
Nomenclatures on the RPPA heatmaps: name_of_antibody.species_of_antibody.status_of_antibody. V - antibody validated; C - validation of antibody in progress; Q - antibody nonspecific; E – under evaluation; antibodies raised in M - mouse, G - goat, R - rabbit, or T - rat.

[1] = Norm_5, replicates 1-3 and Average, relative to Norm_0

For `CN(C)c1cccc(Nc2cc(-c3ccccc3)nc(C3CCNCC3)n2)c1` [ARN22089, N1,N1-dimethyl-N3-(6-phenyl-2-(piperidin-4-yl)pyrimidin-4-yl)benzene-1,3-diamine], the “ATRX.R.C RPPA signal, normalized” value [1] was 0.868 and 1.119 and 1.361 and 1.116, the “ATR_pS428.R.C RPPA signal, normalized” value [1] was 1.018 and 1.013 and 1.046 and 1.026 and the “AceCS1.R.V RPPA signal, normalized” value [1] was 1.085 and 0.933 and 1.019. For the same compound, the “Akt1.R.V RPPA signal, normalized” value [1] was 0.915 and 0.974 and 0.812 and 0.900, the “Akt1_pS473.R.V RPPA signal, normalized” value [1] was 1.006 and 0.879 and 0.961 and the “Akt2.R.V RPPA signal, normalized” value [1] was 0.917 (2×) and 0.925 and 0.908. For the same compound, the “Akt2_pS474.R.C RPPA signal, normalized” value [1] was 1.056 and 1.115, the “Akt.R.V RPPA signal, normalized” value [1] was 0.986 and 0.968 and 1.009 and the “Akt_pS473.R.V RPPA signal, normalized” value [1] was 2.087 and 1.212 and 1.121 and 1.473. The “Akt_pT308.R.V RPPA signal, normalized” value [1] was 1.212 and 0.937 and 1.110, the “Ambra1_pS52.R.C RPPA signal, normalized” value [1] was 0.888 and 0.910 and 0.903 and 0.900 and the “Annexin.I.M.V RPPA signal, normalized” value [1] was 0.981 and 1.012 and 1.278. The “Annexin.VII.M.V RPPA signal, normalized” value [1] was 1.019 and 0.975 and 0.977 and 0.990, the “Atg3.R.V RPPA signal, normalized” value [1] was 1.081 and 0.975 and 1.056 and the “Atg4B.R.C RPPA signal, normalized” value [1] was 1.096 and 1.370 and 1.167. For the same compound, the “Atg5.R.C RPPA signal, normalized” value [1] was 1.011 and 1.078 and 1.020, the “Atg7.R.V RPPA signal, normalized” value [1] was 1.022 and 1.027 and the “Aurora.A.R.C RPPA signal, normalized” value [1] was 0.652 and 0.973 and 0.927 and 0.851. The “Aurora.ABC_pT288_pT232_pT198.R.C RPPA signal, normalized” value [1] was 0.793 and 0.871 and 0.899 and 0.855, the “Aurora.B.R.V RPPA signal, normalized” value [1] was 0.896 and 1.084 and 0.923 and 0.968 and the “Axl.R.V RPPA signal, normalized” value [1] was 0.968 and 1.169 and 1.152 and 1.097. For the same compound, the “B7.H3.R.C RPPA signal, normalized” value [1] was 1.106 and 0.952 and 0.992 and 1.017, the “B7.H4.R.C RPPA signal, normalized” value [1] was 1.026 and 0.982 and 1.007 and 1.005 and the “B.Raf.R.C RPPA signal, normalized” value [1] was 1.062 and 1.061. For the same compound, the “B.Raf_pS445.R.V RPPA signal, normalized” value [1] was 1.018 and 1.017 and 1.057 and 1.031, the “BAP1.M.V RPPA signal, normalized” value [1] was 0.935 and 0.995 and 0.932 and 0.954 and the “BCL2A1.R.V RPPA signal, normalized” value [1] was 1.271 and 0.801 and 1.003. The “BMK1.Erk5_pT218_Y220.R.V RPPA signal, normalized” value [1] was 0.965 and 0.943 and 0.924, the “BRCA1.M.C RPPA signal, normalized” value [1] was 0.876 and 0.959 and 0.998 and 0.944 and the “BRD4.R.V RPPA signal, normalized” value [1] was 1.085 and 1.161 and 1.113. The “Bad_pS112.R.V RPPA signal, normalized” value [1] was 1.029 and 1.014 and 1.062 and 1.035, the “Bak.R.C RPPA signal, normalized” value [1] was 1.012 and 1.001 and 1.061 and 1.025 and the “Bax.R.V RPPA signal, normalized” value [1] was 1.015 and 1.032 and 0.955 and 1.001. For the same compound, the “Bcl2.R.C RPPA signal, normalized” value [1] was 0.966 and 1.014 and 0.939 and 0.973, the “Bcl.xL.R.V RPPA signal, normalized” value [1] was 1.144 and 0.772 and 0.984 and the “Beclin.R.C RPPA signal, normalized” value [1] was 0.940 and 1.010 and 0.868 and 0.939. The “BiP.GRP78.M.C RPPA signal, normalized” value [1] was 0.904 and 0.981 and 0.932 and 0.939, the “Bid.R.C RPPA signal, normalized” value [1] was 1.008 and 0.999 and 1.060 and 1.022 and the “Bim.R.V RPPA signal, normalized” value [1] was 0.866 and 0.980 and 0.919. For the same compound, the “X4E.BP1.R.V RPPA signal, normalized” value [1] was 0.986 and 1.022 and 1.747 and 1.252, the “X4E.BP1_pS65.R.V RPPA signal, normalized” value [1] was 1.142 and 1.063 and 0.945 and 1.050 and the “X4E.BP1_pT37_T46.R.V RPPA signal, normalized” value [1] was 1.104 and 1.054 (2×). The “X14.3.3.zeta.R.V RPPA signal, normalized” value [1] was 0.999 and 1.014, the “X14.3.3βR.V RPPA signal, normalized” value [1] was 0.972 and 0.950 and 1.017 and 0.980 and the “X14.3.3εM.C RPPA signal, normalized” value [1] was 0.936 and 0.999 and 0.976 and 0.971. For the same compound, the “X53BP1.R.V RPPA signal, normalized” value [1] was 0.978 and 0.924 and 0.982, the “b.Actin.R.C RPPA signal, normalized” value [1] was 0.918 and 0.939 and 0.975 and the “b.Catenin.R.V RPPA signal, normalized” value [1] was 0.994 and 0.895 and 0.845. The “b.Catenin_pT41_S45.R.V RPPA signal, normalized” value [1] was 1.007 and 0.992 and 1.022, the “c.Abl.R.V RPPA signal, normalized” value [1] was 1.034 and 1.085 and 1.017 and the “c.Abl_pY412.R.C RPPA signal, normalized” value [1] was 0.992 and 0.994 and 1.009. The “c.IAP2.R.C RPPA signal, normalized” value [1] was 1.048 and 1.023, the C.Raf.R.C normalized signal (Norm_5 Average) was 0.955 and the C.Raf_pS338.R.V normalized signal (Norm_5 Average) was 1.097. It also gave a CA9.R.C normalized signal (Norm_5 Average) of 0.944, a CD2.M.C normalized signal (Norm_5 Average) of 0.959 and a CD4.R.V normalized signal (Norm_5 Average) of 1.051. For the same compound, the CD5.M.C normalized signal (Norm_5 Average) was 0.995, the CD20.R.C normalized signal (Norm_5 Average) was 0.920 and the CD26.R.V normalized signal (Norm_5 Average) was 0.984. For the same compound, the CD29.M.V normalized signal (Norm_5 Average) was 0.963, the CD38.R.C normalized signal (Norm_5 Average) was 1.035 and the CD44.R.C normalized signal (Norm_5 Average) was 0.944. It also gave a CD45.M.V normalized signal (Norm_5 Average) of 0.967, a CD49b.M.V normalized signal (Norm_5 Average) of 0.979 and a CD68.M.C normalized signal (Norm_5 Average) of 0.978. It also gave a CD74.M.V normalized signal (Norm_5 Average) of 0.927, a CD134.R.V normalized signal (Norm_5 Average) of 0.971 and a CD171.M.V normalized signal (Norm_5 Average) of 0.783. It also gave a CDK9.R.V normalized signal (Norm_5 Average) of 0.955, a CDKN2A.R.C normalized signal (Norm_5 Average) of 0.941 and a CDT1.R.V normalized signal (Norm_5 Average) of 0.908. The CENP.A.R.V normalized signal (Norm_5 Average) was 0.910, the CHD1L.R.V normalized signal (Norm_5 Average) was 1.009 and the COG3.R.V normalized signal (Norm_5 Average) was 1.046. It also gave a CRABP1.R.C normalized signal (Norm_5 Average) of 0.948, a CRABP2.R.V normalized signal (Norm_5 Average) of 0.874 and a CSK.R.C normalized signal (Norm_5 Average) of 0.850. For the same compound, the Calnexin.R.V normalized signal (Norm_5 Average) was 0.963, the Caspase.3.cleaved.R.C normalized signal (Norm_5 Average) was 1.016 and the Caspase.7.cleaved..R.C normalized signal (Norm_5 Average) was 1.054. The Caspase.8.M.Q normalized signal (Norm_5 Average) was 0.985.
